According to patent publication US10426775B2, “Methods for treating Friedreich's ataxia with etravirine” (Fratagene Therapeutics srl, priority 2017, dated 2019):

Legend:
frataxin precursor = test: Western blot of frataxin in HEK293 cells expressing only endogenous frataxin; format: cell-based, human; settings: 10 μM etravirine
Method: Total cell extracts were prepared in lysis buffer (50 mM Tris-HCl, pH 7.5, 150 mM NaCl, 1% Igepal CA-630, 5 mM EDTA, 5 mM EGTA) supplemented with complete protease inhibitor cocktail (Roche Diagnostics, Indianapolis, Ind., USA). Lysates were clarified by centrifugation and supernatants were mixed with 4× Laemmli sample buffer (50 mM Tris pH 6.8, 2% SDS, 10% gliycerol, 0.0025% bromophenol blue, 5% beta-mercaptoethanol), boiled for 5 min, resolved by precast 12% SDS-PAGE gels (Bio-Rad Laboratories, Hercules, Calif., USA) and transferred to […] nitrocellulose membrane (TRANS-BLOT® TURBO™ Transfer pack, Bio-Rad). […] The immunoreactive bands were detected by ECL (GE Healthcare, Chalfont St. Giles, UK) and imaged with a ChemiDoc XRS system (Bio-Rad). […] All values are expressed as means±1 S.E.M.
The identified candidate drugs were individually validated for their ability to promote frataxin accumulation in different cell types. […] Protein extracts from the cell lines were resolved on SDS-PAGE and analyzed by western blot with anti-frataxin antibody and anti-tubulin as a loading control. […]
HEK 293-fxn stably expressing frataxin (A), HEK 293 (B), or FRDA lymphoblast cell line GM16203 (C) were treated with 10 μM etravirine for the indicated time points. Protein extracts were resolved on SDS-PAGE and analyzed by western blot with anti-frataxin antibody and anti-tubulin as a loading control. […]

mature frataxin = test: Western blot of frataxin in primary fibroblasts derived from FRDA patients; format: cell-based, human; settings: 300 nM etravirine, 24 hours
Method: Lymphoblastoid cell lines from one healthy subject [GM16215] and 7 FRDA patients [GM16228, GM16203, GM16214, GM16223, GM16210, GM16205, GM16216], and primary fibroblasts from 2 FRDA patients [GM02816 and GM04078], were obtained from NIGMS Human Genetic Cell Repository, Coriell Institute for Medical Research (Camden, N.J., USA). Lymphoblasts and fibroblasts were grown at 37° C. and 5% CO2 and were respectively cultured in RPMI or DMEM, supplemented with 15% FBS, […] penicillin/streptomycin and 2 mM L-glutamine.
For the validation steps, etravirine (TMC125) was purchased from Selleckchem and was dissolved in DMSO at a stock concentration of 10 mM. […]
Total cell extracts were prepared in lysis buffer (50 mM Tris-HCl, pH 7.5, 150 mM NaCl, 1% Igepal CA-630, 5 mM EDTA, 5 mM EGTA) supplemented with complete protease inhibitor cocktail (Roche Diagnostics, Indianapolis, Ind., USA). […] The immunoreactive bands were detected by ECL (GE Healthcare, Chalfont St. Giles, UK) and imaged with a ChemiDoc XRS system (Bio-Rad). […] All values are expressed as means±1 S.E.M.
We chose the minimal effective dose (300 nM) to evaluate the efficacy of etravirine over a broad range of cells derived from FRDA patients. In particular, we analysed 7 lymphoblastoid cell lines derived from FRDA patients and primary fibroblasts derived from two different FRDA patients. […]

SMILES: Cc1cc(C#N)cc(C)c1Oc1nc(Nc2ccc(C#N)cc2)nc(N)c1Br [etravirine]
- frataxin precursor accumulation (frataxin precursor): can also be detected
- average fold increase in mature frataxin levels (mature frataxin; GM03816 fibroblasts (380 GAA repeats)): 1.65 fold
- average fold increase in mature frataxin levels (mature frataxin; GM04078 fibroblasts (541 GAA repeats)): 1.71 fold
